biological target: T1, Proteinase-activated receptor 1 (Homo sapiens, UniProt P25116)
T1 sequence (P25116 whole entry): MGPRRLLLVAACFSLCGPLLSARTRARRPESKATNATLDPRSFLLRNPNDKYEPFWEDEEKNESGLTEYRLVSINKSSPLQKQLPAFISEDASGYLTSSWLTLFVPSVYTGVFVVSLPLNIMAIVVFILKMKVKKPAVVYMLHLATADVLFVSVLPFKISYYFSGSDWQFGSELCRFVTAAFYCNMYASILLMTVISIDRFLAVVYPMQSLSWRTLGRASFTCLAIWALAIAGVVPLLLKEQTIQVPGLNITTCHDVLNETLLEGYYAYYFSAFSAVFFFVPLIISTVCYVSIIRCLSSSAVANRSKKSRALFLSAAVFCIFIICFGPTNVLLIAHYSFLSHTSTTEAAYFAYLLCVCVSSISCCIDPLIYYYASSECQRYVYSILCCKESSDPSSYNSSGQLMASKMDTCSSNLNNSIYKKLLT

| Compound | IC50 [nM] |
| --- | --- |
| CC(=O)N(C(=O)/C=C/c1ccccc1)[C@@H](Cc1ccc(F)cc1)C(=O)N[C@@H](Cc1ccc(NC(=N)N)cc1)C(=O)N[C@@H](CCCN)C(N)=O | 870 |
| CC(=O)N(c1cccs1)[C@@H](Cc1ccc(F)cc1)C(=O)N[C@@H](Cc1ccc(NC(=N)N)cc1)C(=O)N[C@@H](CC(C)C)C(=O)N[C@@H](CCCN=C(N)N)C(N)=O | 260 |
| CC(=O)N(c1c[nH]c2ccccc12)[C@@H](Cc1ccc(F)cc1)C(=O)N[C@@H](Cc1ccc(NC(=N)N)cc1)C(=O)N[C@@H](CC(C)C)C(=O)N[C@@H](CCCN=C(N)N)C(N)=O | 500 |
| CC(=O)N(C(=O)/C=C/c1ccccc1)[C@@H](Cc1ccc(F)cc1)C(=O)N[C@@H](Cc1ccc(N)cc1)C(=O)N[C@@H](CC(C)C)C(=O)N[C@@H](CCCN=C(N)N)C(N)=O | 370 |
| CC(=O)N(C1CCCC1)[C@@H](Cc1ccc(F)cc1)C(=O)N[C@@H](Cc1ccc(NC(=N)N)cc1)C(=O)N[C@@H](CC(C)C)C(=O)N[C@@H](CCCN=C(N)N)C(N)=O | 370 |
| CC(=O)N(C(=O)/C=C/c1ccccc1)[C@@H](Cc1ccc(F)cc1)C(=O)N[C@@H](Cc1ccc(NC(=N)N)cc1)C(=O)N[C@@H](CC(C)C)C(N)=O | 110 |
| CC(=O)N(C(=O)/C=C/c1ccccc1)[C@@H](Cc1ccc(F)cc1)C(=O)N[C@@H](Cc1ccc(NC(=N)N)cc1)C(N)=O | 780 |
| CC(=O)N(C(=O)/C=C/c1ccc(Cl)cc1)[C@@H](Cc1ccc(F)cc1)C(=O)N[C@@H](Cc1ccc(NC(=N)N)cc1)C(=O)N[C@@H](CC(C)C)C(=O)N[C@@H](CCCN=C(N)N)C(N)=O | 99 |
| CC(=O)N(C(=O)/C=C/c1ccccc1)[C@@H](Cc1ccc(F)cc1)C(=O)N[C@@H](CCN=C(N(C)C)N(C)C)C(=O)N[C@@H](CC(C)C)C(=O)N[C@@H](CCCN=C(N)N)C(N)=O | 340 |
| CC(=O)N(C(=O)/C=C/c1ccccc1)[C@@H](Cc1ccc(F)cc1)C(=O)N[C@@H](CCCCN=C(N(C)C)N(C)C)C(=O)N[C@@H](CC(C)C)C(=O)N[C@@H](CCCN=C(N)N)C(N)=O | 130 |
| CC(=O)N(CC(=O)N[C@@H](Cc1ccc(NC(=N)N)cc1)C(=O)N[C@@H](CC(C)C)C(=O)N[C@@H](CCCN=C(N)N)C(N)=O)C(=O)/C=C/c1ccccc1 | > 30000 |
| CC(=O)N(c1cccnc1)[C@@H](Cc1ccc(F)cc1)C(=O)N[C@@H](Cc1ccc(NC(=N)N)cc1)C(=O)N[C@@H](CC(C)C)C(=O)N[C@@H](CCCN=C(N)N)C(N)=O | 950 |
| CC(=O)N(C(=O)Cc1ccc2ccccc2c1)[C@@H](Cc1ccc(F)cc1)C(=O)N[C@@H](Cc1ccc(NC(=N)N)cc1)C(=O)N[C@@H](CC(C)C)C(=O)N[C@@H](CCCN=C(N)N)C(N)=O | 295 |
| CCCC(=O)c1ccc(N(C(C)=O)[C@@H](Cc2ccc(F)cc2)C(=O)N[C@@H](Cc2ccc(NC(=N)N)cc2)C(=O)N[C@@H](CC(C)C)C(=O)N[C@@H](CCCN=C(N)N)C(N)=O)cc1 | 1260 |
| CC(=O)N(C(=O)c1cc2ccccc2oc1=O)[C@@H](Cc1ccc(F)cc1)C(=O)N[C@@H](Cc1ccc(NC(=N)N)cc1)C(=O)N[C@@H](CC(C)C)C(=O)N[C@@H](CCCN=C(N)N)C(N)=O | 4330 |
| CC(=O)N(C(=O)c1cccc(C2CCCCC2)c1)[C@@H](Cc1ccc(F)cc1)C(=O)N[C@@H](Cc1ccc(NC(=N)N)cc1)C(=O)N[C@@H](CC(C)C)C(=O)N[C@@H](CCCN=C(N)N)C(N)=O | 2320 |
| CC(=O)N(c1ccsc1)[C@@H](Cc1ccc(F)cc1)C(=O)N[C@@H](Cc1ccc(NC(=N)N)cc1)C(=O)N[C@@H](CC(C)C)C(=O)N[C@@H](CCCN=C(N)N)C(N)=O | 310 |
| CC(=O)N(Oc1c[nH]c2ccccc12)[C@@H](Cc1ccc(F)cc1)C(=O)N[C@@H](Cc1ccc(NC(=N)N)cc1)C(=O)N[C@@H](CC(C)C)C(=O)N[C@@H](CCCN=C(N)N)C(N)=O | 130 |
| CC(C)C[C@H](NC(=O)[C@@H](N)CCCN=C(N)N)C(=O)N[C@@H](CCCN)C(=O)N[C@@H](Cc1ccc(F)cc1)C(=O)NC(=O)/C=C/c1ccccc1 | 170 |
| CC(=O)N(C(=O)/C=C/c1ccccc1)[C@@H](Cc1ccc(F)cc1)C(=O)NC(=O)NCCC[C@H](NC(=O)[C@H](CC(C)C)NC(=O)[C@@H](N)CCCN=C(N)N)C(=O)O | 1040 |
| CC(=O)N(C(=O)/C=C/c1ccccc1)[C@@H](Cc1ccc(F)cc1)C(=O)N[C@@H](Cc1cccnc1)C(=O)N[C@@H](CC(C)C)C(=O)N[C@@H](CCCN=C(N)N)C(N)=O | 340 |
| CC(=O)N(C(=O)/C=C/c1ccccc1)[C@@H](Cc1ccc(F)cc1)C(=O)N[C@@H](Cc1ccc(Cl)cc1)C(=O)N[C@@H](CC(C)C)C(=O)N[C@@H](CCCN=C(N)N)C(N)=O | 4710 |
| CC(=O)N(c1ccccc1F)[C@@H](Cc1ccc(F)cc1)C(=O)N[C@@H](Cc1ccc(NC(=N)N)cc1)C(=O)N[C@@H](CC(C)C)C(=O)N[C@@H](CCCN=C(N)N)C(N)=O | 560 |
| CC(=O)N(Oc1cccs1)[C@@H](Cc1ccc(F)cc1)C(=O)N[C@@H](Cc1ccc(NC(=N)N)cc1)C(=O)N[C@@H](CC(C)C)C(=O)N[C@@H](CCCN=C(N)N)C(N)=O | 220 |

Now those with a lower IC50, led by results:

| IC50 [nM] | Compound |
| --- | --- |
| 46 | CC(=O)N(C(=O)c1ccc(-c2ccccc2)cc1)[C@@H](Cc1ccc(F)cc1)C(=O)N[C@@H](Cc1ccc(NC(=N)N)cc1)C(=O)N[C@@H](CC(C)C)C(=O)N[C@@H](CCCN=C(N)N)C(N)=O |
| 40 | COc1ccc(/C=C/C(=O)N(C(C)=O)[C@@H](Cc2ccc(F)cc2)C(=O)N[C@@H](Cc2ccc(NC(=N)N)cc2)C(=O)N[C@@H](CC(C)C)C(=O)N[C@@H](CCCN=C(N)N)C(N)=O)cc1 |
| 21.9 | CC(=O)N(C(=O)/C=C/c1ccccc1)[C@@H](Cc1ccc(F)cc1)C(=O)N[C@@H](Cc1ccc(NC(=N)N)cc1)C(=O)N[C@@H](CC(C)C)C(=O)N[C@@H](CCCN=C(N)N)C(=O)N[C@@H](CCCN)C(=O)CCC(N)=O |
| 17 | CC(=O)N(C(=O)/C=C/c1ccccc1)[C@@H](Cc1ccc(F)cc1)C(=O)N[C@@H](Cc1ccc(NC(=N)N)cc1)C(=O)N[C@@H](CC(C)C)C(=O)N[C@@H](CCCN)C(N)=O |
| 7.8 | CC(=O)N(C(=O)/C=C/c1ccccc1)[C@@H](Cc1ccc(F)cc1)C(=O)N[C@@H](Cc1ccc(NC(=N)N)cc1)C(=O)N[C@@H](CC(C)C)C(=O)N[C@@H](CCCN=C(N)N)C(N)=O |
| 16.6 | CC(=O)N(C(=O)/C=C/c1ccccc1)[C@@H](Cc1ccc(F)cc1)C(=O)N[C@@H](Cc1ccc(NC(=N)N)cc1)C(=O)N[C@@H](CC(C)C)C(=O)N[C@@H](CCCN=C(N)N)C(=O)N[C@@H](CCCN)C(=O)CC(N)=O |
| 39 | CC(=O)N(C(=O)/C=C/c1ccccc1)[C@@H](Cc1ccc(F)cc1)C(=O)N[C@@H](CCCCN)C(=O)N[C@@H](CC(C)C)C(=O)N[C@@H](CCCN=C(N)N)C(N)=O |
| 61 | CC(=O)N(C(=O)/C=C/c1ccc(N)cc1)[C@@H](Cc1ccc(F)cc1)C(=O)N[C@@H](Cc1ccc(NC(=N)N)cc1)C(=O)N[C@@H](CC(C)C)C(=O)N[C@@H](CCCN=C(N)N)C(N)=O |
| 21 | CC(=O)N(C(=O)COc1ccccc1)[C@@H](Cc1ccc(F)cc1)C(=O)N[C@@H](Cc1ccc(NC(=N)N)cc1)C(=O)N[C@@H](CC(C)C)C(=O)N[C@@H](CCCN=C(N)N)C(N)=O |
| 62 | CC(=O)N(C(=O)/C=C/c1ccc(O)cc1)[C@@H](Cc1ccc(F)cc1)C(=O)N[C@@H](Cc1ccc(NC(=N)N)cc1)C(=O)N[C@@H](CC(C)C)C(=O)N[C@@H](CCCN=C(N)N)C(N)=O |
| 42 | CCC(=O)c1cccc(N(C(C)=O)[C@@H](Cc2ccc(F)cc2)C(=O)N[C@@H](Cc2ccc(NC(=N)N)cc2)C(=O)N[C@@H](CC(C)C)C(=O)N[C@@H](CCCN=C(N)N)C(N)=O)c1 |

— ChEMBL document CHEMBL1129588, “Development of potent thrombin receptor antagonist peptides” (J Med Chem, 1996)
